Data on 7 compounds can be found in article PMC5458547, “Discovery of first-in-class reversible dual small molecule inhibitors against G9a and DNMTs in hematological malignancies” (Nature Communications, 2017).

Test [1] deals with OCI-AML-2. As to the kind of experiment: Cell proliferation assay (MTS). The format is cell-based, human.
In test [2] the test system is OCI-Ly3. Description: Cell proliferation assay (MTS). In kind it is cell-based. The following applies: Homo sapiens.
The target in test [3] is T1, G9a (Homo sapiens, UniProt Q96KQ7).
T1 sequence (Q96KQ7 1-1210): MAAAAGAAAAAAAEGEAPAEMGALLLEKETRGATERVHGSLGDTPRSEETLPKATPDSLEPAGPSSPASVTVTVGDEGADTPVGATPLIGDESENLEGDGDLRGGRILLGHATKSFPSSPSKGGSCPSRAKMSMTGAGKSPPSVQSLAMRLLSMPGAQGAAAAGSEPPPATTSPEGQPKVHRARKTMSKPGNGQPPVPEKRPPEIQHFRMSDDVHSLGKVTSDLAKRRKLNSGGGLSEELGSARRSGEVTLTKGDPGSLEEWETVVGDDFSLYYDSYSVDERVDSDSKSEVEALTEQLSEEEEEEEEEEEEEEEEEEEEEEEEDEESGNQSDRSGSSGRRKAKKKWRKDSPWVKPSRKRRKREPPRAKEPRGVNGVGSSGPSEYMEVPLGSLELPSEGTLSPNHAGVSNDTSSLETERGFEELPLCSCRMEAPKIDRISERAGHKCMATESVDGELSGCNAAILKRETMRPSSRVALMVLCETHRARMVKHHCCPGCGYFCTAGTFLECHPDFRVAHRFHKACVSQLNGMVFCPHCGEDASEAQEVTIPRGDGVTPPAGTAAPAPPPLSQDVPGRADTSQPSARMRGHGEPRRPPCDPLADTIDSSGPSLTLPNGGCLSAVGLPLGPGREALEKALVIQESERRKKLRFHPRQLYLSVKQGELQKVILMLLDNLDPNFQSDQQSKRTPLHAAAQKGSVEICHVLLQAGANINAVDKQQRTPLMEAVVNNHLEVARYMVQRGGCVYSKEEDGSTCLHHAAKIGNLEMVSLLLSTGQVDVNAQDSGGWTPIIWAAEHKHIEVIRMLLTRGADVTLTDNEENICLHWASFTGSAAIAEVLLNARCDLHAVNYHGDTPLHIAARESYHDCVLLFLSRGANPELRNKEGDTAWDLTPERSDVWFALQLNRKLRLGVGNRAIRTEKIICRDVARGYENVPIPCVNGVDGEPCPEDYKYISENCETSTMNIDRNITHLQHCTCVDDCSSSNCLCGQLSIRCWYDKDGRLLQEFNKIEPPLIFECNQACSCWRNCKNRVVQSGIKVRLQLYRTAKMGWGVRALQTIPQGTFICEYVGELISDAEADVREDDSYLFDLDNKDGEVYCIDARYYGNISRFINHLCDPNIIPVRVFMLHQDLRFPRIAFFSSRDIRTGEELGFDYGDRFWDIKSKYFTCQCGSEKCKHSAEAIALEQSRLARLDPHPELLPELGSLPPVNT
Description: G9a enzyme activity assay (TR-FRET). The format is biochemical. The following applies: for IC50: TR-FRET, internally determined. (Time-resolved FRET reads energy transfer from a long-lived donor to a nearby acceptor.)

Test [4] relates to CEMO-1. Description: Cell proliferation assay (MTS). The note with it: 48 h. In kind it is cell-based, human.
Test [5] concerns LAL-CUN-2. As to the kind of experiment: Cell proliferation assay (MTS). The format is cell-based. The following applies: Homo sapiens, 48 h.
The test system of test [6] is OCI-Ly10. Description: Cell proliferation assay (MTS). The following applies: Homo sapiens, OCI-Ly10, 48 h. In kind it is cell-based, human.
Test [7] deals with MV4-11. Description: Cell proliferation assay (MTS). The format is cell-based. The following applies: Homo sapiens.
Test [8] concerns the target T2, human DNMT1 enzyme (Homo sapiens, UniProt P26358).
T2 construct: purchased
As to the kind of experiment: DNMT1 enzyme activity assay (TR-FRET). The following applies: internally determined. The format is biochemical.

Test [9] deals with T3, DNMT1 catalytic domain (501-1632) (Homo sapiens, UniProt P26358).
T3 construct: Flag (N); purchased
Description: SPR on immobilised DNMT1. In kind it is binding. From the text:
We have indeed tried to measure the affinity of the reported compounds for DNMT1 using SPR. For that, we attempted SPR experiments using the two different DNMT1 protein constructs we can purchase: A full length DNMT1 with an N-terminal GST fusion, and a shorter construct containing the […]
First, we immobilized GST-tagged full length DNMT1 to a chip containing anti-GST antibody, but the amount immobilized was only 8% of the GST Ab chip capacity, and insufficient to detect binding of the ca. 500 Da compounds, presumably due to steric impediments resulting from the large size (dimer of 209 kDa monomers) of the GST-DNMT1 fusion protein. The theoretical SPR signal expected for the compounds binding with a 1:1 stoichiometry to the amount of protein immobilized (2300 RU) is only 5 response units (RU), with the precision of our BiacoreX100 SPR instrument typically being 1- […]
reference channels at 5 µM, indicating unspecific binding to the chip surface/Ab/GST, and very likely masking their possible direct binding to DNMT1. Compound injections at 200 µM […]
differential increase in the DNMT1 channel that indicates non-reversible binding with a high stoichiometry (responses of 81 and 65 RU, respectively; with 5 RU expected for a 1:1 binding), likely resulting from aggregation of the compounds at 200 µM concentration in the DNMT1 channel. […]
properly measured. […]

Setting [10] is: OCI-Ly3, ABC-DLBCL, 48 h, read-out: GI50.
Setting [11] is: Homo sapiens, ALL, read-out: GI50.
Setting [12] is: Homo sapiens, CEMO-1, 48 h, as used in apoptosis assay, read-out: GI50.
Setting [13] is: Homo sapiens, OCI-AML2, AML, 48 h, read-out: GI50.
Setting [14] is: ABC-DLBCL, 48 h, read-out: GI50.
Setting [15] is: MV4-11, AML, 48 h, read-out: GI50.

Where two headings read alike, the source gives them in different places.

T3 sequence (P26358 485-1616): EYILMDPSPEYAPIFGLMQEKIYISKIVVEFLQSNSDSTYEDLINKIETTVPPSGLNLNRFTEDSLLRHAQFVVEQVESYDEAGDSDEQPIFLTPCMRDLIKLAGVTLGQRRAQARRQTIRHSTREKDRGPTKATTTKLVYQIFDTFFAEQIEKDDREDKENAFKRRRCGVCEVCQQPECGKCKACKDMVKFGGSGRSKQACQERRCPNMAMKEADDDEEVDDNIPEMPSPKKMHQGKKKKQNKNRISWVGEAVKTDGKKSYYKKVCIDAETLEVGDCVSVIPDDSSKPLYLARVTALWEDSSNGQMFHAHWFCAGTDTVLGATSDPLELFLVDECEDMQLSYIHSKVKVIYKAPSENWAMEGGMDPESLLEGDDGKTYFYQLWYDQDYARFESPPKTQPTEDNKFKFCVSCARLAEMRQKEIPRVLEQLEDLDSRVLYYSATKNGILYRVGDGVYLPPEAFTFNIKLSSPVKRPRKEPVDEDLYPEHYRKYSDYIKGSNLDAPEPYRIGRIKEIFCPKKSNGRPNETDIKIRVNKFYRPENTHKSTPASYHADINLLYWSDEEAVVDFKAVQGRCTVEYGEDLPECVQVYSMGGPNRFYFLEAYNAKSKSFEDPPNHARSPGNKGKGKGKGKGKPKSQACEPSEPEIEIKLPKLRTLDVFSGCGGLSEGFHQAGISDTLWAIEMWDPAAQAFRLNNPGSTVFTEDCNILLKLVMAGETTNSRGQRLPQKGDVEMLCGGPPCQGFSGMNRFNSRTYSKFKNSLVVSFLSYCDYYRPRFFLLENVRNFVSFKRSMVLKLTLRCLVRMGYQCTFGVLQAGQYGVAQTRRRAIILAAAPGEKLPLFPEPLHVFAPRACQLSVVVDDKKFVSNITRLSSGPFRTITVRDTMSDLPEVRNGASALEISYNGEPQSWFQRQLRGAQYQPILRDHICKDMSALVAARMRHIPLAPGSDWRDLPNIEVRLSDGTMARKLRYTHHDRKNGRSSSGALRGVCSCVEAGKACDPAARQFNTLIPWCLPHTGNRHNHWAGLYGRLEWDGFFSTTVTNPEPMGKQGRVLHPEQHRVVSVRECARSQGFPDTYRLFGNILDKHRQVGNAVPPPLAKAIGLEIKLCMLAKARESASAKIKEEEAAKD
T2 sequence (P26358 whole entry): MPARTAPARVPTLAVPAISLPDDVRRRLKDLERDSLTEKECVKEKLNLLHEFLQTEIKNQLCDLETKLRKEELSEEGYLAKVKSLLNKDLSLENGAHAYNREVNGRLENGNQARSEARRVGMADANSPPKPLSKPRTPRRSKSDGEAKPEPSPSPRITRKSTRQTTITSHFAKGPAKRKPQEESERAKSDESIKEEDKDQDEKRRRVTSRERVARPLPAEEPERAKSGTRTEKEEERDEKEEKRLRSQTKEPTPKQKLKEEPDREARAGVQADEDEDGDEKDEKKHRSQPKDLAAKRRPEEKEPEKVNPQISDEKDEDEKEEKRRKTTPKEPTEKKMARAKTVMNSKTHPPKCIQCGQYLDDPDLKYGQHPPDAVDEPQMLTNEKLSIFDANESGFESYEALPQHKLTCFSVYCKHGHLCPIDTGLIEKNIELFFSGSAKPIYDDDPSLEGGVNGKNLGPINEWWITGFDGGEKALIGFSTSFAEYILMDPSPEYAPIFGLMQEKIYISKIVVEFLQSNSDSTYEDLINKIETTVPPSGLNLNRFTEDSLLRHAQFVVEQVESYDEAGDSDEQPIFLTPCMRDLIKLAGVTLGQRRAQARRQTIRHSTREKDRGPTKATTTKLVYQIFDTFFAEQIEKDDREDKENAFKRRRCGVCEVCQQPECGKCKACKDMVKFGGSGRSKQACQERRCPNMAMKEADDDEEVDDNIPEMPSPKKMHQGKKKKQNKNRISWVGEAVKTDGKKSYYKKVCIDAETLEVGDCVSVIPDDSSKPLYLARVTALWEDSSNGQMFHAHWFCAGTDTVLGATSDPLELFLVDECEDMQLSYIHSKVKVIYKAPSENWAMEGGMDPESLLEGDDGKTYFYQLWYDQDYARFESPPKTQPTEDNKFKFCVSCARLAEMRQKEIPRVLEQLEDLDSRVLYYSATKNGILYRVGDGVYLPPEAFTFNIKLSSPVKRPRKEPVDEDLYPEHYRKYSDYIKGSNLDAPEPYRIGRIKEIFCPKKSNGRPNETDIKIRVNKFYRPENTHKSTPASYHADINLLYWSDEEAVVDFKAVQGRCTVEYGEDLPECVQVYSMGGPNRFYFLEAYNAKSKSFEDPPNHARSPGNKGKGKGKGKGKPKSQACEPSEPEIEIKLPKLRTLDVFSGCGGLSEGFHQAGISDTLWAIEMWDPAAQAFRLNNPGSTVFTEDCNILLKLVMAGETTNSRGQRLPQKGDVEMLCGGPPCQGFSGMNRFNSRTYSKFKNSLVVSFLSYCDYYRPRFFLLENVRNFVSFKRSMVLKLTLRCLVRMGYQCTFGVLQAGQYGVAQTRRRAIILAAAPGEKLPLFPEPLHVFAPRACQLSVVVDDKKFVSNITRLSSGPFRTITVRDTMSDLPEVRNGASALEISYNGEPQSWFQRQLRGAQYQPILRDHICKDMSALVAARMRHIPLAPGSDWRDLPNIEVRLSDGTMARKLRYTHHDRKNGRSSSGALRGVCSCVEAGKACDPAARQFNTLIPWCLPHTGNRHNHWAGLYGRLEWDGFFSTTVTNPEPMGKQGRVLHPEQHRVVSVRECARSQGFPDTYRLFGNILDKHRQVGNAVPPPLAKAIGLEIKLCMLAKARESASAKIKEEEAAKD

For `COc1cc2c(cc1OCCCN1CCCC1)N=C(N)C21CCC1` [A-366], the GI50 in [1] (OCI-AML-2, combination study set-up, read-out: GI50) was over 50 µM.

Consider `Nc1ncn([C@@H]2O[C@H](CO)[C@@H](O)[C@H]2O)c(=O)n1` [Azacitidine, azacitidine], for which the GI50 in test [2] (setting [10]) is 1.93 µM; in [4] (setting [11]), 3.96 µM; in [4] (setting [12]), 7.7 µM; in [1] (setting [13]) it was over 10 µM; in test [5] (ALL, read-out: GI50), 21.2 µM; in [6] (setting [14]), 2.6 µM. In addition, the GI50 in test [7] (setting [15]) amounted to 5.56 µM. The compound further gave an IC50 in test [3] of over 10 µM.

Regarding `COc1cc2nc(N3CCCN(C)CC3)nc(NC3CCN(Cc4ccccc4)CC3)c2cc1OC` [BIX-01294], the GI50 in test [2] (setting [10]) was over 4 µM; in test [4] (setting [11]), 2.91 µM; in [4] (setting [12]), 2.9 µM; in [1] (setting [13]), 6.32 µM; in test [5] (ALL, read-out: GI50), 5.94 µM; in test [6] (setting [14]), over 4 µM. The GI50 in [7] (setting [15]) was found to be 11.9 µM. The compound also gave an IC50 in [8] of over 10 µM.

With `COc1cc2c(OC3CCN(C)CC3)cc(-c3ccc(C)o3)nc2cc1OCCCN1CCCC1` [CM-1021, 6-methoxy-2-(5-methyl-2-furyl)-4-[(1-methyl-4-piperidyl)oxy]-7-(3-pyrrolidin-1-ylpropoxy)quinoline], the “reduction of primary activity (4-oxyquinoline vs 4-aminoquinoline)” value in test [3] (secondary amine replaced by ether) is reported as “more than 2.5 log units”.

In the case of `Nc1ncn([C@H]2C[C@H](O)[C@@H](CO)O2)c(=O)n1` [Decitabine, decitabine], the GI50 in test [2] (OCI-Ly3, 48 h) was over 4 µM; in [4] (ALL) it was 0.49 µM; in test [4] (Homo sapiens, ALL), 0.506 µM; in test [1] (Homo sapiens, OCI-AML2, 48 h) it was over 10 µM; in test [5], over 22.4 µM; in [6] it was over 4 µM. The compound also returned a GI50 in test [7] (MV4-11, 48 h) of over 50 µM. In [3], this compound returned an IC50 of over 10 µM.

`C[S+](CC[C@H](N)C(=O)[O-])C[C@H]1O[C@@H](n2cnc3c(N)ncnc32)[C@H](O)[C@@H]1O` (stereo partly drawn) [SAM, S-adenosyl-L-methionine] showed a Kd in test [9] of 15 to 20 µM.

Consider `COc1cc2c(NC3CCN(C(C)C)CC3)nc(C3CCCCC3)nc2cc1OCCCN1CCCC1` [UNC-0638], for which the GI50 is over 4 µM in test [2] (setting [10]); 4.73 µM in test [4] (setting [11]); 4.7 µM in [4] (setting [12]); 7.33 µM in test [1] (setting [13]); 5.18 µM in test [5] (ALL, read-out: GI50); over 4 µM in test [6] (setting [14]). Further, the GI50 in [7] (setting [15]) was determined as 12 µM.

The GI50 is the concentration at which growth is held to half of that of the control. Broadly, the IC50 is the midpoint of a concentration-inhibition curve. Read a high IC50 as a need for much substance. In general, Kd refers to a measure of binding affinity in units of concentration. Lower therefore signals tighter binding.
